Tests used:
[1] = test system: organisms of mold and mildew; test: Protection of latex paint on wood panels from mold and mildew, tropical chamber; settings: 0.3 percent by weight in latex paint, two months, 95 percent RH, 82°F
Protocol: 4-Chlorophenyl-2-thienyliodonium chloride is employed in a paint composition to protect the paint from attack and subsequent degradation by the organisms of mold and mildew. In such operations, the salt compound is dispersed and incorporated in the latex paint in the amount of 0.3 percent by weight of the ultimate paint composition.
The paint employed in these operations is prepared by intimately blending a pigment dispersion with a letdown including a synthetic latex comprising an interpolymer of ethyl acrylate, methyl methacrylate, acrylic acid and methacrylic acid. The paint has the following composition.
Wood panels are then painted with the modified compositions as well as with the unmodified paint. The panels are dried and thereafter exposed two months in a tropical chamber at a relative humidity of 95 percent and a temperature of 82°F. (28°C.). Following this period, the wood panels are examined to ascertain what control of […] is obtained.

[2] = test system: Swiss mice (Cox strain); test: Oral median lethal dose in Swiss mice (Cox strain); format: in vivo
Protocol: (§1) Five groups of mice, each consisting of 15 males and 15 females, were given ClPhThICl in an aqueous 0.5 percent METHOCEL hydroxypropyl methylcellulose (4000 cps.) suspension at a concentration of 300 mg/ml. The compound was administered as a single oral dose at 0.2 logarithmic dose intervals (708, 1120, 1780, 2820, 4450 mg/kg) and the following mortality experience was noted:
(§2) The percent of total mortalities occurring was 16.0, 66.6, 81.5, and 91.3 at 6, 24, 48 and 72 hours post-treatment, respectively. The last death occurred in a female (1120 mg/kg group) on day 14 of the study.

[3] = Oral median lethal dose in Swiss mice (Cox strain); format: in vivo; settings: mouse, in vivo, po; for LD50 at 168 h: 7 days; for LD50 at 336 h: 14 days
Protocol: as §1, §2

[4] = test system: S. typhosa; test: Agar plate kill test with Ivory soap, S. typhosa; format: cell-based; settings: 48 h; 1 p.p.m., Ivory soap; read-out: Percent Kill of S. Typhosa
Protocol: (§3) Phenyl-2-thienyliodonium chloride, 2,2'-bisthienyliodonium chloride, and, for comparative purposes, diphenyliodonium chloride are individually dispersed in Ivory soap to provide concentrates containing 1 part by weight of iodonium salt to 50 parts by weight of soap. The soap concentrates are serially dispersed and serially diluted with liquid nutrient agar at 42°C. to prepare culture media containing various concentrations of one of the iodonium salts. The culture media are uniformly inoculated with S. aureus and plated in petri dishes. The inoculation is carried out from broth cultures of the named organism containing about 5×10^8 organisms per milliliter in the proportion of one-tenth milliliter of bacterial culture per 20 milliliters of cultur medium containing each test compound. In a check operation, nutrient agar containing the same amount of Ivory soap is similarly inoculated with the same organism. After two days' incubation at 37°C., the plates are examined for microbial growth.
The procedure described above is again repeated in a series of tests wherein the culture media are inoculated individually with the organism S. typhosa and wherein the culture media contain varying concentrations of one of the iodonium salts, as set forth in following Table II.

[5] = test system: Sprague-Dawley (Cox strain) rats; test: Oral median lethal dose in Sprague-Dawley (Cox strain) rats; format: in vivo; settings: 708 mg/kg oral, 24 Hours
[6] = test system: S. typhosa; test: Nutrient agar growth test, S. typhosa (Example 3); format: cell-based; settings: 0.001 percent by weight, 2 days, 35°C
Text: The 4-chlorophenyl-2-thienyliodonium chloride, trifluoroacetate and trichloroacetate salts are dispersed in melted nutrient agar to produce culture media containing 0.001 percent by weight of one of the salt compounds. Such melted media are then poured into petri dishes and the solidified surface in each dish inoculated with a 24-hour broth culture, one of the organisms S. aureus and S. typhosa. In a check operation, petri dishes containing unmodified nutrient agar are each individually inoculated in the same manner with the named organisms. After two days' incubation at 35°C. the agar surface in each dish is examined for microbial growth. […] At the time of these observations the check dishes are found to support a heavy growth of the two named organisms.

[7] = test system: A. aerogenes; test: Agar plate kill test with Ivory soap, A. aerogenes; format: cell-based; settings: Klebsiella aerogenes, 48 h, read-out: Percent Kill of A. aerogenes
Protocol: as §3
The procedure described above is repeated with varying concentrations of 4-chlorophenyl-2-thienyliodonium chloride, 3,4-dichlorophenyl-2-thienyliodonium chloride, and for comparative purposes bis(4-chlorophenyl)iodonium chloride, phenyl-4-chlorophenyliodonium chloride and bis(2,4-dichlorophenyl)iodoniumchloride in a series of tests wherein the culture media are inoculated individually with the organism A. aerogenes.
The procedure described above is once again repeated with each of 2,2'-bisthienyliodonium chloride, phenyl-2-thienyliodonium chloride, 4-bromophenyl-2-thienyliodonium chloride, bis(4-bromophenyl)iodonium chloride and bis(4-bromophenyl)iodonium bromide in a series of tests wherein the culture media are inoculated individually with the organism A. aerogenes.

[8] = male mice, 95% confidence limits 1353-2288 mg/kg

## Clc1ccc([I+]c2cccs2)cc1.[Cl-] [4-Chlorophenyl-2-thienyliodonium chloride]
[1]
  control of growth of mold and mildew on painted panels: complete control of the growth of the organisms of mold and mildew
[2]; 708 mg/kg oral, 7 Days, females
  No. Dead: 1/15
[2]; 708 mg/kg oral, 7 Days, males
  No. Dead: 0/15
[2]; 708 mg/kg oral, 14 Days, females
  No. Dead: 2/15
[2]; 708 mg/kg oral, 14 Days, males
  No. Dead: 1/15
[2]; 708 mg/kg oral, 24 Hours, females
  No. Dead: 0/15
[2]; 708 mg/kg oral, 24 Hours, males
  No. Dead: 0/15
[2]; 1120 mg/kg oral, 7 Days, females
  No. Dead: 1/15
[2]; 1120 mg/kg oral, 7 Days, males
  No. Dead: 1/15
[2]; 1120 mg/kg oral, 14 Days, females
  No. Dead: 2/15
[2]; 1120 mg/kg oral, 14 Days, males
  No. Dead: 1/15
[2]; 1120 mg/kg oral, 24 Hours, females
  No. Dead: 0/15
[2]; 1120 mg/kg oral, 24 Hours, males
  No. Dead: 0/15
[2]; 1780 mg/kg oral, 7 Days, females
  No. Dead: 8/15
[2]; 1780 mg/kg oral, 7 Days, males
  No. Dead: 8/15
[2]; 1780 mg/kg oral, 14 Days, females
  No. Dead: 8/15
[2]; 1780 mg/kg oral, 14 Days, males
  No. Dead: 9/15
[2]; 1780 mg/kg oral, 24 Hours, females
  No. Dead: 4/15
[2]; 1780 mg/kg oral, 24 Hours, males
  No. Dead: 3/15
[2]; 2820 mg/kg oral, 7 Days, females
  No. Dead: 14/15
[2]; 2820 mg/kg oral, 7 Days, males
  No. Dead: 14/15
[2]; 2820 mg/kg oral, 14 Days, females
  No. Dead: 14/15
[2]; 2820 mg/kg oral, 14 Days, males
  No. Dead: 14/15
[2]; 2820 mg/kg oral, 24 Hours, females
  No. Dead: 8/15
[2]; 2820 mg/kg oral, 24 Hours, males
  No. Dead: 11/15
[2]; 4450 mg/kg oral, 7 Days, females
  No. Dead: 15/15
[2]; 4450 mg/kg oral, 7 Days, males
  No. Dead: 15/15
[2]; 4450 mg/kg oral, 14 Days, females
  No. Dead: 15/15
[2]; 4450 mg/kg oral, 14 Days, males
  No. Dead: 15/15
[2]; 4450 mg/kg oral, 24 Hours, females
  No. Dead: 13/15
[2]; 4450 mg/kg oral, 24 Hours, males
  No. Dead: 15/15
[2]; 6 hours post-treatment
  percent of total mortalities occurring: 16.0%
[2]; 24 hours post-treatment
  percent of total mortalities occurring: 66.6%
[2]; 48 hours post-treatment
  percent of total mortalities occurring: 81.5%
[2]; 72 hours post-treatment
  percent of total mortalities occurring: 91.3%
[2]; female, 1120 mg/kg group
  time of last death: 14 days
[3]; female mice, 95% confidence limits 2300-3591 mg/kg
  LD50 at 24 h: 2700 mg/kg
[3]; male mice, 95% confidence limits 1916-2760 mg/kg
  LD50 at 24 h: 2300 mg/kg
[3]; female mice, 95% confidence limits 1172-2455 mg/kg
  LD50 at 168 h: 1700 mg/kg
[3]; [8]
  LD50 at 168 h: 1760 mg/kg
  LD50 at 336 h: 1760 mg/kg
[3]; female mice, 95% confidence limits 1264-1975 mg/kg
  LD50 at 336 h: 1580 mg/kg
[4]
  killing at 1 ppm: 100%
[5]; females
  No. Dead: 0/10
[5]; males
  No. Dead: 1/10
[6]
  microbial growth on agar surface: free of microbial growth
[7]
  killing at 1 ppm: 100%

From patent US3944498A, “Germicidal detergent containing a thienyliodonium salt” (The Dow Chemical Company, priority 1973, dated 1976)
